Assay results from patent publication US20220267274A1, “TARGETING PTPN22 IN CANCER THERAPY” (The Johns Hopkins University, priority 2019, published 2022).

Test system: MC38 tumors
Test: MC38 subcutaneous syngeneic tumor model in WT C57Bl/6J mice
Settings: LTV1 6 mg/kg/dose, treatment analogous to L1
Description: All mice husbandry, experiments, and euthanasia were performed in accordance with Johns Hopkins IACUC approved protocols. WT C57Bl/6J, Balb/cJ, and PTPN22 KO (B6.Cg-Ptpn22tm2Achn/J) mice were purchased from JAX and bred in-house. For syngeneic immunocompetent mouse models, aged-matched 8-12 week old female mice were injected with MC38 (2.5×10^5) or EG7 (2.5×10^5 for rejection and 5×10^5 for treatment) or CT26 (5×10^5) subcutaneously in the right hind limb. […] LTV1 was also dissolved in DMSO and diluted to the same final formulation for administration at 6 mg/kg/dose. Vehicle injections contained 10% DMSO and 5% cremophor-EL in PBS.

## Cc1ccccc1N1C(=O)/C(=C/c2ccc(OCc3cccc(C(=O)O)c3)cc2)C(=O)NC1=S [LTV1]
  MC38 tumor growth compared to vehicle: moderately decreased tumor growth
